This note sets out measurements from US10570157B2, “Cyclic diarylboron derivatives as NLRP3 inflammasome inhibitors” (The University of Manchester, priority 2015, dated 2020).

In general, melting point refers to the temperature, or range, at which the solid turns liquid. Usually IC50 stands for the concentration that inhibits the measured activity by half. Low values mean greater potency in that assay, high ones weaker potency in that assay.

Series [1] concerns inflammasome / IL-1β release in THP1 cell line. Put plainly: IL-1β release from LPS-primed, nigericin-activated THP1 cells (ELISA). It is filed as cell-based, human. The settings on record: for potency in the screen of NBC molecules (effect on IL-1β release): 10 μM compound, 15 min before nigericin (20 μM, 1 h), LPS-primed THP1 cells, normalised to nigericin-induced IL-1β release. On the procedure: Data are the mean±SD of at least 4 separate experiments.
To screen the compounds of the invention, the human monocytic THP1 cell line was used. Cells were primed with LPS (1 μg/ml, 4 h) and then treated with vehicle (0.5% DMSO) or NBC molecule of the invention (see compounds listed below) at 10 μM for 15 min before activation of the inflammasome and IL-1β release with nigericin (20 μM, 1 h). The NBC molecule was present throughout nigericin stimulation. The effects of the molecules on IL-1β release were normalised to nigericin-induced IL-1β release in the absence of any inhibitor (FIGS. 1-3).
(In general: An ELISA detects its analyte on a solid surface through an enzyme-linked reagent.)

Take `CC(=O)C1=C(C(Cl)(Cl)Cl)N[B-](c2ccccc2)(c2ccccc2)[O+]=C1NC1CCCCC1` [compound 48, 5-Acetyl-6-(cyclohexylamino)-2,2-diphenyl-4-(trichloromethyl)-2,3-dihydro-1,3,2-oxazaborinin-1-ium-2-uide]: the melting point was 53 to 54 °C. For the same compound, the “potency in the screen of NBC molecules (effect on IL-1β release)” value (from here on “potency in the screen of NBC molecules”) in series [1] was “most potent”. With `CC(=O)C1=C(C(Cl)(Cl)Cl)N[B-](c2ccc(C)cc2)(c2ccc(C)cc2)[O+]=C1N` [compound 57, 5-Acetyl-6-amino-2,2-bis(p-tolyl)-4-(trichloromethyl)-2,3-dihydro-1,3,2-oxazaborinin-1-ium-2-uide], the melting point was 145 to 148 °C (dec.).

In turn, `CC(=O)C1=C(C(Cl)(Cl)Cl)N[B-](c2ccccc2)(c2ccc(C)cc2)[O+]=C1N` (stereo not drawn) [compound 59, 5-Acetyl-6-amino-2-(phenyl)-2-(p-tolyl)-4-(trichloromethyl)-2,3-dihydro-1,3,2-oxazaborinin-1-ium-2-uide] displayed a melting point of 141 to 143 °C. In the case of `CC(=O)C1=C(C(Cl)(Cl)Cl)N[B-](c2ccccc2)(c2ccccc2)[O+]=C1N` [compound 14, (Z)-2-Acetyl-3-amino-4,4,4-trichlorobut-2-enamide diphenylboron], the “potency in the screen of NBC molecules” value in series [1] is reported as “most potent”. The same compound yielded an IC50 in series [1] (Homo sapiens, THP-1, THP1 cells, LPS primed, nigericin stimulated, FIG. 3) of 500 nM.

Compound `CC1=[O+][B-](c2ccccc2)(c2ccccc2)NC(C(Cl)(Cl)Cl)=C1C(=O)OC(C)(C)C` [compound 41, 5-(tert-Butoxycarbonyl)-2,2-di phenyl-6-methyl-4-(trichloromethyl)-2,3-dihydro-1,3,2-oxazaborinin-1-ium-2-uide] displayed a melting point of 147 to 149 °C. Take `NC(=O)C1=C(C(Cl)(Cl)Cl)N[B-](c2ccccc2)(c2ccccc2)[O+]=C1N` [compound 42, 6-Amino-5-carbamoyl-2,2-diphenyl-4-(trichloromethyl)-2,3-dihydro-1,3,2-oxazaborinin-1-ium-2-uide]: the “potency in the screen of NBC molecules” value in series [1] is reported as “most potent”. With `CC(=O)C1=C(C(Cl)(Cl)Cl)N[B-](c2ccccc2)(c2ccccc2)[O+]=C1NCc1ccc2ccc3cccc4ccc1c2c34`, the melting point is 167 to 169 °C (dec.).
